Where two headings read alike, the source gives them in different places.
Tests used:
human DPPS = target: T1, human DPPS (Homo sapiens, UniProt Q5T2R2); assay: human DPPS enzyme inhibition; assay type: biochemical; conditions: Table 1, experimental
T1 construct: made in house
T1 sequence (Q5T2R2 1-415): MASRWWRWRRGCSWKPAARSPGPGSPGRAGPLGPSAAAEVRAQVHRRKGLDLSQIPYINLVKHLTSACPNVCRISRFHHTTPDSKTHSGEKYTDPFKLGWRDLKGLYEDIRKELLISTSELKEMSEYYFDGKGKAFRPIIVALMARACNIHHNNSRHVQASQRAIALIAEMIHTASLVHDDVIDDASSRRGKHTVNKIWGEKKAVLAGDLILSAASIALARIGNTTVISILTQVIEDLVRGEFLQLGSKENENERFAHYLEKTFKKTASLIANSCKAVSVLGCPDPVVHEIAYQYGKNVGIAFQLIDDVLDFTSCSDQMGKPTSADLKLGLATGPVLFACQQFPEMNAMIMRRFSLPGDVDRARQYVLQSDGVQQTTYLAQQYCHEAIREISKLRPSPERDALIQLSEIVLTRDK
T1 sequence (Q86YH6 1-399 partner): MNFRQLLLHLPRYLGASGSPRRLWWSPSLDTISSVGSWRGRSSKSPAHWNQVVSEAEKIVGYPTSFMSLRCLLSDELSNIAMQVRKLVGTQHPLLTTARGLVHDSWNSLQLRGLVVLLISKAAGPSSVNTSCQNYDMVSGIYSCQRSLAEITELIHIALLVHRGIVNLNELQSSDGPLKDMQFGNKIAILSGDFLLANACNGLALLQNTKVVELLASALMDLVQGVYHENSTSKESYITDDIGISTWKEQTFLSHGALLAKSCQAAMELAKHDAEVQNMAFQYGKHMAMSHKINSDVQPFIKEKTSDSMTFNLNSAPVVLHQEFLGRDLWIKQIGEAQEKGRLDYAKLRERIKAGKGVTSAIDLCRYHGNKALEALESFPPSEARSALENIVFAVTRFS
Excerpt: To test our polypharmaceutical hypothesis, we expressed three enzymes: human FPPS, GGPPS and DPPS, and tested each for their inhibition by a series of bisphosphonates.

[1] = tested on: SF-268 (central nervous system glioblastoma); assay: SF-268 cell growth inhibition (MTT); assay type: cell-based, human; conditions: Table 1, experimental
Excerpt: (§1) Cell Growth Inhibition Assays. […] A broth microdilution method was used to determine IC50 values for growth inhibition by each bisphosphonate. […] NBPs were typically initially dissolved in H2O (0.01 M) while NNBPs were typically dissolved in DMSO (0.01 M).
(§2) GraphPad PRISM® version 4.0 software for windows (GraphPad Software Inc., San Diego, Calif., www.graphpad.com) was used to fit the data to a rectangular hyperbolic function: I=(ImaxC)/(IC50+C); […]

[2] = tested on: MCF-7 (breast adenocarcinoma); assay: MCF-7 cell growth inhibition (MTT), incl. FOH/GGOH rescue; assay type: cell-based, human; conditions: for MCF7 Cell pIC50: Table 3, determined in this work; for IC50: Homo sapiens
Excerpt: as §1
GraphPad PRISM® version 4.0 software for windows (GraphPad Software Inc., San Diego, Calif., www.graphpad.com) was used to fit the data to a rectangular hyperbolic function: I=(ImaxC)/(IC50+C);
For the “rescue” experiments, stock solutions of FOH or GGOH were prepared (in ethanol) and the requisite amounts added to the incubation media to produce a fixed 20 μM concentration.

[3] = tested on: NCI-H460 (lung large cell); assay: NCI-H460 cell growth inhibition (MTT); assay type: cell-based, human; conditions: Table 1, experimental
Excerpt: as §1, §2

Vγ2Vδ2 T cells = assay: γδ T cell activation (TNF-α release and proliferation); assay type: cell-based, human; conditions: Table 2, -log10(value, M)
Protocol: γδ T Cell Assays. Vγ2Vδ2 T cell TNF-α release and proliferation were performed basically as described previously^1. Briefly, to measure bioactivity for Vγ2Vδ2 T cells, the CD4^+ JN.24, CD4^+ HF.2, CD8αα^+ 12G12, or the CD4^−8^− HD.108 Vγ2Vδ2 T cell clones were stimulated with phosphoantigens in the presence of CP.EBV (an EBV transformed B cell line) for CD4^+ clones or Va-2 (a transformed fibroblast) for CD8αα^+ and CD4^−8^− clones. CP.EBV and Va-2 were fixed with 0.05% glutaraldehyde (EM grade, Sigma, Mo.) for use as APCs. […] Curve fitting minima for each experiment (e.g. TNF-α release from JN.24 cells) were determined using the Global Fitting technique, as implemented in Prism 4.0. Curve fitting maxima were optimized for each individual compound without the use of any constraints.

| Structure (SMILES) | MCF7 Cell pIC50 [2] | MCF-7 Cell pIC50 (M) ([2]; Table 2, -log10(value, M)) | γδ T Cell Avg pED50 (M) (Vγ2Vδ2 T cells) | also measured |
| --- | --- | --- | --- | --- |
| NCCCC(O)(P(=O)(O)O)P(=O)(O)O [BPH-1, reference compound] | 3.31 | – | – | DPPS pKi (human DPPS): 6.3; SF-268 pIC50 (M) [1]: 3.5 M; MCF-7 pIC50 (M) ([2]; Table 1, experimental): 3.3 M; NCI-H460 pIC50 (M) [3]: 3.5 M |
| NCCC(O)(P(=O)(O)O)P(=O)(O)O [BPH-5, reference compound] | 3.85 | – | – | DPPS pKi (human DPPS): 6.3; SF-268 pIC50 (M) [1]: 3.5 M; MCF-7 pIC50 (M) ([2]; Table 1, experimental): 3.9 M; NCI-H460 pIC50 (M) [3]: 4.0 M |
| O=P(O)(O)C(O)(Cc1c[nH]cn1)P(=O)(O)O [BPH-18, reference compound] | 5.41 | – | – | – |
| CCCCCN(C)CCC(O)(P(=O)(O)O)P(=O)(O)O [BPH-24, reference compound] | – | – | – | DPPS pKi (human DPPS): 7.3; SF-268 pIC50 (M) [1]: 3.8 M; MCF-7 pIC50 (M) ([2]; Table 1, experimental): 3.7 M; NCI-H460 pIC50 (M) [3]: 3.7 M |
| O=P(O)(O)C(NC1CCCCCC1)P(=O)(O)O [BPH-31, reference compound] | 4.30 | – | – | – |
| O=P(O)(O)C(N1CCCCCC1)P(=O)(O)O [BPH-57, reference compound] | 3.60 | – | – | – |
| O=P(O)(O)C(Cc1nccs1)P(=O)(O)O [BPH-58, reference compound] | 3.48 | – | – | – |
| O=P(O)(O)C(N1CCCCC1)P(=O)(O)O [BPH-72, reference compound] | 3.34 | – | – | – |
| O=P(O)(O)C(O)(Cn1ccnc1)P(=O)(O)O [BPH-91, reference compound] | 4.81 | – | – | DPPS pKi (human DPPS): 7.4; SF-268 pIC50 (M) [1]: 4.8 M; MCF-7 pIC50 (M) ([2]; Table 1, experimental): 4.7 M; NCI-H460 pIC50 (M) [3]: 4.8 M |
| CN(CCc1ccccc1)CCC(O)(P(=O)(O)O)P(=O)(O)O [BPH-208, reference compound] | 4.38 | – | – | – |
| CN(CCCc1ccccc1)CCC(O)(P(=O)(O)O)P(=O)(O)O [BPH-209, reference compound] | 4.01 | – | – | – |
| CN(CCCCc1ccccc1)CCC(O)(P(=O)(O)O)P(=O)(O)O [BPH-210, reference compound] | 4.08 | – | – | – |
| CN(CCOc1ccccc1)CCC(O)(P(=O)(O)O)P(=O)(O)O [BPH-219, reference compound] | 4.93 | – | – | – |
| O=P(O)(O)C(O)(Cc1cnc2ccccn12)P(=O)(O)O [BPH-261] | – | – | – | DPPS pKi (human DPPS): 6.8; SF-268 pIC50 (M) [1]: 4.9 M; MCF-7 pIC50 (M) ([2]; Table 1, experimental): 4.8 M; NCI-H460 pIC50 (M) [3]: 4.8 M |
| O=P(O)(O)C(Cc1cccnc1)P(=O)(O)O [BPH-290] | – | 3.47 | 4.21 | – |
| O=P(O)(O)C(O)(C[n+]1cccc(F)c1)P(=O)(O)O [BPH-461, 3-fluoro-1-(2-hydroxy-2,2-bisphosphonoethyl)-pyridinium] | – | 4.34 | 4.16 | – |
| O=P([O-])(O)C(C[n+]1ccccc1)P(=O)(O)O (stereo not drawn) [BPH-470] | – | 4.14 | 4.12 | – |
| CCc1ccc[n+](CC(P(=O)([O-])O)P(=O)(O)O)c1 (stereo not drawn) [BPH-475] | – | 4.37 | 3.94 | – |
| CCCCc1ccc[n+](CC(P(=O)([O-])O)P(=O)(O)O)c1 (stereo not drawn) [BPH-476] | – | 4.58 | 4.00 | – |

| Structure (SMILES) | MCF7 Cell pIC50 [2] | MCF-7 Cell pIC50 (M) ([2]; Table 2, -log10(value, M)) | γδ T Cell Avg pED50 (M) (Vγ2Vδ2 T cells) | also measured |
| --- | --- | --- | --- | --- |
| O=P([O-])(O)C(C[n+]1cccc(F)c1)P(=O)(O)O (stereo not drawn) [BPH-477] | – | 4.77 | 3.80 | – |
| O=P([O-])(O)C(C[n+]1cccc(Cc2ccccc2)c1)P(=O)(O)O (stereo not drawn) [BPH-480] | – | 3.42 | 3.33 | – |
| O=P([O-])(O)C(C[n+]1ccc(Cc2ccccc2)cc1)P(=O)(O)O (stereo not drawn) [BPH-481] | – | 3.90 | 3.45 | – |
| CC(C)(C)C(=O)OCOP(=O)(O)C(C[n+]1ccccc1)P(=O)([O-])O (stereo not drawn) [BPH-656] | – | 4.88 | 4.29 | – |
| CC(C)(C)C(=O)OCOP(=O)(O)C(C[n+]1cccc(F)c1)P(=O)([O-])O (stereo not drawn) [BPH-669] | – | 4.75 | 4.49 | – |
| CC(C)(C)C(=O)OCOP(=O)(O)C(O)(C[n+]1cccc(F)c1)P(=O)([O-])O (stereo not drawn) [BPH-670] | – | 4.64 | 4.16 | – |
| CCCCCCCCCCCCc1ccc[n+](CC(P(=O)([O-])O)P(=O)(O)O)c1 (stereo not drawn) [BPH-677] | – | 4.34 | 4.88 | – |
| O=P([O-])(O)C(C[S+]1CCCC1)P(=O)(O)O (stereo not drawn) [BPH-682] | – | 4.02 | 3.84 | – |
| C[S+](CCCc1ccccc1)CC(P(=O)([O-])O)P(=O)(O)O (stereo not drawn) [BPH-686] | – | 4.24 | 3.81 | – |
| CCCCCCCCCC[S+](C)CC(P(=O)([O-])O)P(=O)(O)O (stereo not drawn) [BPH-687] | – | 6.20 | 5.09 | – |
| CCCCCCCCCCCC[S+](C)CC(P(=O)([O-])O)P(=O)(O)O (stereo not drawn) [BPH-688] | – | – | – | IC50 ([2]; MCF7, Table 1, experimental, read-out: MCF-7 pIC50 (converted)): 6.31 µM; IC50 ([2]; MCF7, Table 2, -log10(value, M), read-out: MCF-7 Cell pIC50 (converted)): 0.501 µM; EC50 (Vγ2Vδ2 T cells; Homo sapiens, T-cell, read-out: γδ T Cell Avg pED50 (converted)): 5.62 µM |
| CCCN(C)CC(P(=O)(O)O)P(=O)(O)O [BPH-693] | – | 5.32 | 5.28 | – |
| CCCCCCCCCCCCCCCC[S+](C)CC(P(=O)([O-])O)P(=O)(O)O (stereo not drawn) [BPH-695] | – | 5.95 | 5.68 | – |
| CCCCCCCCCCCCCCCCCC[S+](C)CC(P(=O)([O-])O)P(=O)(O)O (stereo not drawn) [BPH-696] | – | 5.85 | 4.63 | – |
| CCCCCCCCOc1ccc[n+](CC(P(=O)([O-])O)P(=O)(O)O)c1 (stereo not drawn) [BPH-714] | – | 6.82 | 5.29 | – |
| CCCCOc1ccc[n+](CC(P(=O)([O-])O)P(=O)(O)O)c1 (stereo not drawn) [BPH-721] | – | 4.70 | 4.10 | – |
| CCCCCCOc1ccc[n+](CC(P(=O)([O-])O)P(=O)(O)O)c1 (stereo not drawn) [BPH-723] | – | 5.76 | 4.44 | – |
| NCCC(O)(P(=O)(O)O)P(=O)(O)O [pamidronate, reference compound] | – | – | – | IC50 ([2]; MCF7, FIG. 2A, read-out: IC50, MCF-7 tumor cell growth inhibition): ~300 µM |

From patent US8012949B2, “Bisphosphonate compounds and methods with enhanced potency for multiple targets including FPPS, GGPPS, and DPPS” (The Board of Trustees of the University of Illinois, priority 2004, dated 2011)
